The text below walks through data of PubChem BioAssay AID212 (DTP/NCI, 2004).

The subject of this experiment is BDF1 mice, colon carcinoma 38 sc, T/C %. Kind of experiment: NCI In Vivo Anticancer Drug Screen. Data for tumor model Colon Carcinoma 38 (subcutaneous) in B6D2F1 (BDF1) mice. The method in brief: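 T/C readout: treated group (T) measurement over vehicle control group (C) measurement. Endpoint is survival or tumor size in mice bearing a transplanted tumor.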
Setting [1] is: endpoint: median tumor weight (est.), dose: 12.5 mg/kg/injection, schedule: Q07DX002 (ip), vehicle: saline with Tween-80, higher = larger tumour.
Setting [2] is: endpoint: median tumor weight (est.), dose: 12.5 mg/kg/injection, schedule: Q07DX002 (ip), vehicle: saline, higher = larger tumour.
Where [3] appears, read: endpoint: median tumor weight (est.), dose: 25.0 mg/kg/injection, schedule: Q07DX002 (ip), vehicle: saline with Tween-80, higher = larger tumour.
The mark [4] stands for this setting: endpoint: median tumor weight (est.), dose: 25.0 mg/kg/injection, schedule: Q07DX002 (ip), vehicle: saline, higher = larger tumour.
[5] abbreviates: endpoint: median tumor weight (est.), dose: 50.0 mg/kg/injection, schedule: Q07DX002 (ip), vehicle: saline with Tween-80, higher = larger tumour.
[6] abbreviates: endpoint: median tumor weight (est.), dose: 50.0 mg/kg/injection, schedule: Q07DX002 (ip), vehicle: saline, higher = larger tumour.
Where [7] appears, read: endpoint: median tumor weight (est.), dose: 1.5 mg/kg/injection, schedule: Q07DX002 (ip), vehicle: saline, higher = larger tumour.
[8] abbreviates: endpoint: median tumor weight (est.), dose: 3.0 mg/kg/injection, schedule: Q07DX002 (ip), vehicle: saline, higher = larger tumour.
The mark [9] stands for this setting: endpoint: median tumor weight (est.), dose: 12.0 mg/kg/injection, schedule: Q07DX002 (ip), vehicle: saline, higher = larger tumour.
The mark [10] stands for this setting: endpoint: median tumor weight (est.), dose: 24.0 mg/kg/injection, schedule: Q07DX002 (ip), vehicle: saline, higher = larger tumour.
Where [11] appears, read: endpoint: median tumor weight (est.), dose: 100.0 mg/kg/injection, schedule: Q07DX002 (ip), vehicle: Klucel (hydroxypropylcellulose) (HPC), higher = larger tumour.
Setting [12] is: endpoint: median tumor weight (est.), dose: 200.0 mg/kg/injection, schedule: Q07DX002 (ip), vehicle: Klucel (hydroxypropylcellulose) (HPC), higher = larger tumour.

Values joined by “and” are separate entries in the source; they are usually repeats but may differ in a detail not shown here. Identical values can stand only once. Records with an inconclusive call do not appear.

Turning to `CCCCCCCCCCCCCCCCCC(=O)OCC(=O)OCC(=O)[C@]1(O)Cc2c(O)c3c(c(O)c2[C@@H](OC2CC(N)C(O)C(C)O2)C1)C(=O)c1c(OC)cccc1C3=O` (stereo not given in full), the T/C reads like this: (endpoint: median survival time, dose: 11.5 mg/kg/injection, schedule: Q07DX002 (iv), vehicle: saline, higher = longer survival) 111 % of control; (endpoint: median tumor weight (est.), dose: 1.69 mg/kg/injection, schedule: Q07DX002 (ip), vehicle: saline with Tween-80, higher = larger tumour) 70 % of control; (endpoint: median tumor weight (est.), dose: 3.38 mg/kg/injection, schedule: Q07DX002 (ip), vehicle: saline with Tween-80, higher = larger tumour) 93 % of control; (endpoint: median tumor weight (est.), dose: 6.75 mg/kg/injection, schedule: Q07DX002 (ip), vehicle: saline with Tween-80, higher = larger tumour) 79 % of control and 89 % of control and 97 % of control; (endpoint: median tumor weight (est.), dose: 27.0 mg/kg/injection, schedule: Q07DX002 (ip), vehicle: saline with Tween-80, higher = larger tumour) 18 % of control and 37 % of control.
On to `OCC1OC(n2cnc3c(=S)nc[nH]c32)C(O)C1O` (stereo not given), for which the T/C is, setting by setting: under setting [1], 61 % of control; under setting [2], 90 % of control; under setting [3], 97 % of control and 118 % of control; under setting [4], 101 % of control; under setting [5], 77 % of control and 83 % of control and 80 % of control; under setting [6], 14 % of control. Also, the T/C is, setting by setting: (endpoint: median tumor weight (est.), dose: 100.0 mg/kg/injection, schedule: Q07DX002 (ip), vehicle: saline, higher = larger tumour) 17 % of control; (endpoint: median tumor weight (est.), dose: 200.0 mg/kg/injection, schedule: Q07DX002 (ip), vehicle: saline, higher = larger tumour) 46 % of control; (endpoint: median tumor weight (est.), dose: 400.0 mg/kg/injection, schedule: Q07DX002 (ip), vehicle: saline, higher = larger tumour) 22 % of control; (endpoint: median tumor weight (est.), dose: 800.0 mg/kg/injection, schedule: Q07DX002 (ip), vehicle: saline with Tween-80, higher = larger tumour) 33 % of control and 34 % of control and 57 % of control; (endpoint: median tumor weight (est.), dose: 1600.0 mg/kg/injection, schedule: Q07DX002 (ip), vehicle: saline with Tween-80, higher = larger tumour) 28 % of control.
Consider `COc1cccc2c1C(=O)c1c(O)c3c(c(O)c1C2=O)C[C@@](O)(/C(CO)=N/NC(=O)c1ccc(Cl)c(Cl)c1)C[C@@H]3OC1CC(N)C(O)C(C)O1` (stereo not given in full), for which the T/C runs as follows: under setting [7], 88 % of control; under setting [8], 115 % of control; (endpoint: median tumor weight (est.), dose: 6.0 mg/kg/injection, schedule: Q07DX002 (ip), vehicle: saline, higher = larger tumour) 80 % of control; under setting [9], 73 % of control; under setting [10], 46 % of control; (endpoint: median tumor weight (est.), dose: 48.0 mg/kg/injection, schedule: Q07DX002 (ip), vehicle: saline, higher = larger tumour) 48 % of control.
Regarding `CC(=O)OC1C2OC3C=C(C)CCC3(CO)C(C)(C1O)C21CO1` (stereo not given), the T/C (endpoint: median tumor weight (est.), dose: 1.0 mg/kg/injection, schedule: Q07DX002 (ip), vehicle: saline, higher = larger tumour) is 80 % of control.
On to `[Cl][Pt+2][Cl].[NH-]C1CCC1.[NH2-]`, for which the T/C was 95 % of control under setting [7]; 64 % of control under setting [8]; 43 % of control and 49 % of control under setting [9]; 13 % of control under setting [10].
In the case of `CSC(SC)=C1C(=O)NC(=O)NC1=O`, the T/C (endpoint: median tumor weight (est.), dose: 6.25 mg/kg/injection, schedule: Q07DX002 (ip), vehicle: saline, higher = larger tumour) was 85 % of control; the T/C under setting [2] was 70 % of control; the T/C under setting [4] was 83 % of control; the T/C under setting [6] was 45 % of control.
As to `CCCCCCCCCCCCCCC/C([O-])=N/[N+](C)(C)CC(C)O` (stereo not given), the T/C by setting is: (endpoint: median tumor weight (est.), dose: 25.0 mg/kg/injection, schedule: Q01DX001 (ip), vehicle: saline, higher = larger tumour) 164 % of control; (endpoint: median tumor weight (est.), dose: 200.0 mg/kg/injection, schedule: Q01DX001 (ip), vehicle: saline, higher = larger tumour) 120 % of control; (endpoint: median tumor weight (est.), dose: 400.0 mg/kg/injection, schedule: Q01DX001 (ip), vehicle: saline, higher = larger tumour) 85 % of control.
On to `Cc1oc2c(C)c3oc(=O)cc(C)c3cc2c1CCl`, for which the T/C runs as follows: under setting [1], 77 % of control and 89 % of control; under setting [5], 74 % of control and 77 % of control; (endpoint: median tumor weight (est.), dose: 200.0 mg/kg/injection, schedule: Q07DX002 (ip), vehicle: saline with Tween-80, higher = larger tumour) 53 % of control; (endpoint: median tumor weight (est.), dose: 400.0 mg/kg/injection, schedule: Q07DX002 (ip), vehicle: saline with Tween-80, higher = larger tumour) 94 % of control.
For `C=C[Si]12OCCN(CCO1)CCO2`, the T/C (endpoint: median tumor weight (est.), dose: 25.0 mg/kg/injection, schedule: Q07DX002 (ip), vehicle: Klucel (hydroxypropylcellulose) (HPC), higher = larger tumour) was 73 % of control and 90 % of control; the T/C under setting [11] was 29 % of control; the T/C under setting [12] is 93 % of control and 97 % of control.
Turning to `O=NN(CCCl)C(=O)NCCCl`, the T/C is, setting by setting: (endpoint: median tumor weight (est.), dose: 1.0 mg/kg/injection, schedule: Q07DX002 (ip), vehicle: saline with Tween-80, higher = larger tumour) 92 % of control; (endpoint: median tumor weight (est.), dose: 2.5 mg/kg/injection, schedule: Q07DX002 (ip), vehicle: saline with Tween-80, higher = larger tumour) 66 % of control; (endpoint: median tumor weight (est.), dose: 3.0 mg/kg/injection, schedule: Q07DX002 (ip), vehicle: saline + alcohol, higher = larger tumour) 96 % of control; (endpoint: median tumor weight (est.), dose: 4.0 mg/kg/injection, schedule: Q07DX002 (ip), vehicle: saline with Tween-80, higher = larger tumour) 82 % of control; (endpoint: median tumor weight (est.), dose: 4.0 mg/kg/injection, schedule: Q07DX003 (ip), vehicle: saline with Tween-80, higher = larger tumour) 97 % of control and 98 % of control; (endpoint: median tumor weight (est.), dose: 5.0 mg/kg/injection, schedule: Q07DX002 (ip), vehicle: saline with Tween-80, higher = larger tumour) 82 % of control. The T/C (endpoint: median tumor weight (est.), dose: 6.0 mg/kg/injection, schedule: Q07DX002 (ip), vehicle: saline + alcohol, higher = larger tumour) was 88 % of control; the T/C (endpoint: median tumor weight (est.), dose: 8.0 mg/kg/injection, schedule: Q07DX003 (ip), vehicle: saline with Tween-80, higher = larger tumour) was 71 % of control and 87 % of control; the T/C (endpoint: median tumor weight (est.), dose: 10.0 mg/kg/injection, schedule: Q07DX002 (ip), vehicle: saline with Tween-80, higher = larger tumour) is 43 % of control; the T/C (endpoint: median tumor weight (est.), dose: 12.0 mg/kg/injection, schedule: Q07DX002 (ip), vehicle: saline + alcohol, higher = larger tumour) is 59 % of control; the T/C (endpoint: median tumor weight (est.), dose: 20.0 mg/kg/injection, schedule: Q07DX002 (ip), vehicle: saline with Tween-80, higher = larger tumour) was 15 % of control; the T/C (endpoint: median tumor weight (est.), dose: 24.0 mg/kg/injection, schedule: Q07DX002 (ip), vehicle: saline + alcohol, higher = larger tumour) was 37 % of control. The T/C (endpoint: median tumor weight (est.), dose: 32.0 mg/kg/injection, schedule: Q07DX003 (ip), vehicle: saline with Tween-80, higher = larger tumour) is 24 % of control.
In the case of `Clc1ccc(CN2COc3c(ccc4cccnc34)C2)cc1Cl`, the T/C reads like this: under setting [1], 180 % of control; under setting [3], 171 % of control; under setting [5], 110 % of control; (endpoint: median tumor weight (est.), dose: 100.0 mg/kg/injection, schedule: Q07DX002 (ip), vehicle: saline with Tween-80, higher = larger tumour) 206 % of control.
Take `Cc1ncc([N+](=O)[O-])n1CCSC(N)=O`: the T/C was 111 % of control (endpoint: median tumor weight (est.), dose: 12.5 mg/kg/injection, schedule: Q07DX003 (ip), vehicle: saline with Tween-80, higher = larger tumour); 164 % of control (endpoint: median tumor weight (est.), dose: 25.0 mg/kg/injection, schedule: Q07DX003 (ip), vehicle: saline with Tween-80, higher = larger tumour); 108 % of control (endpoint: median tumor weight (est.), dose: 100.0 mg/kg/injection, schedule: Q07DX003 (ip), vehicle: saline with Tween-80, higher = larger tumour).
As for `CC[C@@]1(O)C[C@H](OC2CC(N(C)C)C(OC3CC(O)C(OC4CCC(=O)C(C)O4)C(C)O3)C(C)O2)c2c(cc3c(c2O)C(=O)c2c(O)ccc(O)c2C3=O)[C@H]1C(=O)OC` (stereo not given in full), the T/C runs as follows: (endpoint: median tumor weight (est.), dose: 0.5 mg/kg/injection, schedule: Q07DX002 (ip), vehicle: water, higher = larger tumour) 78 % of control; (endpoint: median tumor weight (est.), dose: 0.5 mg/kg/injection, schedule: Q07DX003 (ip), vehicle: water, higher = larger tumour) 100 % of control; (endpoint: median tumor weight (est.), dose: 1.0 mg/kg/injection, schedule: Q07DX002 (ip), vehicle: water, higher = larger tumour) 47 % of control; (endpoint: median tumor weight (est.), dose: 1.0 mg/kg/injection, schedule: Q07DX003 (ip), vehicle: water, higher = larger tumour) 111 % of control; (endpoint: median tumor weight (est.), dose: 2.0 mg/kg/injection, schedule: Q07DX002 (ip), vehicle: water, higher = larger tumour) 84 % of control; (endpoint: median tumor weight (est.), dose: 2.0 mg/kg/injection, schedule: Q07DX003 (ip), vehicle: water, higher = larger tumour) 79 % of control. In addition, the T/C was 44 % of control (endpoint: median tumor weight (est.), dose: 4.0 mg/kg/injection, schedule: Q07DX002 (ip), vehicle: water, higher = larger tumour); 46 % of control (endpoint: median tumor weight (est.), dose: 4.0 mg/kg/injection, schedule: Q07DX003 (ip), vehicle: water, higher = larger tumour); 47 % of control (endpoint: median tumor weight (est.), dose: 8.0 mg/kg/injection, schedule: Q07DX002 (ip), vehicle: water, higher = larger tumour).
`CCN(CC)CCNC(=O)Cc1cccc2c(=O)cc(-c3ccccc3)oc12`: the T/C is 101 % of control under setting [11]; 96 % of control under setting [12]; 68 % of control (endpoint: median tumor weight (est.), dose: 400.0 mg/kg/injection, schedule: Q07DX002 (ip), vehicle: Klucel (hydroxypropylcellulose) (HPC), higher = larger tumour).
Take `Nc1nc2nc[nH]c2c(=O)[nH]1`: the T/C reads like this: (endpoint: median tumor weight (est.), dose: 100.0 mg/kg/injection, schedule: Q07DX002 (ip), vehicle: suspension in saline, higher = larger tumour) 90 % of control; (endpoint: median tumor weight (est.), dose: 200.0 mg/kg/injection, schedule: Q07DX002 (ip), vehicle: suspension in saline, higher = larger tumour) 83 % of control.
